# Test results: patent publication US20210308077A1, “COMBINATIONS INCLUDING BETA-ADRENORECEPTOR AGONISTS FOR TREATMENT OF PARKINSON`S DISEASE AND MOVEMENT DISORDERS” (The Brigham and Women`s Hospital, Inc., priority 2017, published 2021)
# Tests used:
# [1] = tested on: α-synuclein protein and mRNA in substantia nigra; assay: placebo-controlled trial in wild-type mice, Snca expression in substantia nigra; type: in vivo, mouse
# Experimental: Twenty C57BL/6J male mice (8 weeks old) (Jackson Laboratory, Bar Harbor Me.) were used for the placebo-controlled trial. Mice were exposed to a 12-hour light and 12-hour dark cycle, maintained at a constant temperature of 22° C., and were cared for in accordance with the National Institutes of Health Guide for the Care and Use of Laboratory Animals. Clenbuterol was purchased from Sigma (St. Louis, Mo.). Clenbuterol (10 mg/kg, injection volume 10 ml/kg) dissolved in saline was administered to mice (N=10) intraperitoneally. Saline was administered as a vehicle treatment (N=10). Mice were euthanized by CO224 hours post-injection. Brains were removed and snap frozen immediately in dry ice. Further dissections were performed on the frozen tissue to obtain substantia nigra regions. Tissue was then stored at −80° C. until mRNA or protein extraction was performed.
# (§1) Total RNA from flash-frozen mice brain tissue, rodent primary cells, human neuroblastoma cells and iPSC-derived neuronal cells was isolated using TRIzol® (Life Technologies) following the manufacturer's protocol. RNA concentration was measured using NanoDrop spectrophotometer (Thermo Fisher Scientific, Wilmington, De.). 2 μg of total RNA was reverse transcribed into cDNA using the High Capacity cDNA Reverse Transcription Kit from Applied Biosystems. Quantitative PCR was performed using TaqMan Universal PCR Master Mix (Applied Biosystems) on an ABI 7900HT instrument (Applied Biosystems) as described previously (31). […] Expression values were analyzed using the comparative threshold cycle method (31).
# Protein lysis buffer containing 320 mM sucrose, 5 mM NaF, 1 mM Na3VO4, 10 mM Tris (pH 7.4), 1 mM EGTA, and 1 mM EDTA was used for mice brain tissue lysis. […] Total protein concentrations were determined by BCA assay (Thermo Scientific) according to the manufacturer's instructions. Total α-synuclein was quantified using an α-synuclein-specific sandwich ELISA. […]
# MPTP mouse model = assay: controlled trial in the MPTP mouse model; type: in vivo; details: MPTP 20 mg/kg i.p. five days; clenbuterol 10 mg/kg i.p. once then oral gavage daily for two weeks
# Experimental: Male C57bl/6 mice (8-10 weeks old) were analyzed. N-methyl-4-phenyl-1,2,3,6-tetrahydropyridine (MPTP-HCl; 20 mg/kg, measured as free base; Sigma, St. Louis, Mo.) was administered to mice intraperitoneally once per day for five consecutive days similar to described previously (26,36). Eight MPTP-treated mice assigned to the clenbuterol treatment group received one 10 mg/kg i.p. injection of clenbuterol (two days prior to MPTP treatment start) and then clenbuterol via oral gavage (10 mg/kg) daily for two weeks (starting on the day of the first MPTP treatment). Another eight MPTP-treated mice assigned to the vehicle treatment group received only oral drinking water (without clenbuterol). […]
# After overnight postfixation in 4% paraformaldehyde, brains were cryoprotected in 30% sucrose before cryosectioning into […] (used for stereology) free-floating sections, obtained as described previously (36). […] TH+ cells were analyzed by sterological estimates as described previously (36). Briefly, the total number of TH+neurons in the SNc was calculated by optical fractionation using Stereo Investigator (version 6; MicroBrightField, Williston, Vt.). […] Total number of TH+ neurons was determined using the optical fractionator. Adjacent tissue was also stained using cresyl violet (Sigma, 0.01% for 5 min) to confirm cell loss as assessed by TH analysis.
# SNCA mRNA = assay: SNCA expression in SNCA-triplication iPSC-derived neurons; type: cell-based, human; details: SNCA-triplication iPSC-derived neurons cultured for 8 weeks, 20 μM for three days
# Experimental: To begin neural differentiation, NPCs were dissociated with accutase and re-plated on matrigel-coated T75 flasks (CytoOne). The next day medium was fully changed to Neural Differentiation (ND) medium, which is NB medium supplemented with recombinant human BDNF and GNDF (both at 10 ng/mL; R&D Systems) and dibutyryl cyclic AMP (500 μM; Sigma), and without FGF-2. Thereafter, media was half-changed every other day. On day 7-9, differentiating neurons were gently dissociated to single cell suspension and then resuspended in pre-chilled Hank's balanced salt solution (HBSS; Gibco/Life Technologies) supplemented with 0.1% bovine serum albumin (Gibco/Life Technologies). After a wash step, cells were plated on 6- or 24-well plates pre-coated with poly-ornithine and laminin (BD Biocoat). […]
# as §1, with “2 μg of total RNA was reverse transcribed into cDNA using the High Capacity cDNA Reverse Transcription Kit from Applied Biosystems.” left out
# [2] = 10 mg/kg intraperitoneal, 24 hours, vs saline, n=10 per group
structure (smiles),measurement,setting,value
CC(C)(C)NCC(O)c1cc(Cl)c(N)c(Cl)c1 (stereo not drawn) [clenbuterol],endogenous α-synuclein mRNA in substantia nigra,[1]; [2],lowered
same,endogenous α-synuclein protein in substantia nigra,[1]; [2],lowered
same,α-synuclein protein in substantia nigra by Western blotting,[1]; anti-α-synuclein antibodies 2F12 and C-20,confirmed by Western blotting
same,TH+ neurons in the SNpc,MPTP mouse model,abrogated the MPTP-induced loss of TH+ neurons
same,cresyl-violet (CV) stained cells in the SNpc,MPTP mouse model,blocked the loss of cresyl-violet (CV) stained cells
same,SNCA expression,SNCA mRNA,reduced
